{"source": "patent US8598079B2", "about": "“Active compound combinations” (priority 2010, dated 2013)", "key": {"Phaedon cochleariae": {"tested_on": "Phaedon cochleariae", "test": "Phaedon cochleariae larvae test", "conditions": "sprayed cabbage leaves"}, "Pyrenophora teres": {"tested_on": "Pyrenophora teres", "test": "Pyrenophora teres test (in vitro)/microtitre plates", "assay_type": "cell-based", "conditions": "120 h, 5 days incubation, single active compound, read-out: % efficacy", "procedure": "(§1) The microtest is carried out in microtitre plates using Potato Dextrose Broth (PDB) as liquid test medium. The active compounds are used as technical-grade a.i., dissolved in methanol. For inoculation, a spore suspension of Pyrenophora teres is used. After 5 days of incubation in the dark and with shaking (10 Hz), the transparency in each filled cavity of the microtitre plates is determined with the aid of a spectrophotometer."}, "Rhizoctonia solani": {"tested_on": "Rhizoctonia solani", "test": "Rhizoctonia solani test (in vitro)/microtitre plates", "assay_type": "cell-based", "conditions": "168 h, 7 days incubation, single active compound, read-out: % efficacy", "procedure": "as §1, with “acetone.” for “methanol.”, “mycelium” for “spore”, “Rhizoctonia solani” for “Pyrenophora teres”, “7” for “5”"}}, "data": [{"smiles": "CNC(=O)c1cc(Cl)cc(C)c1NC(=O)c1cc(Br)nn1-c1ncccc1Cl", "note": "[Rynaxypyr, 3-bromo-N-[4-chloro-2-methyl-6-(methylcarbamoyl)phenyl]-1-(3-chloropyridin-2-yl)-1H-pyrazole-5-carboxamide]", "values": [{"measurement": "Kill in % after 3 d", "setting": "Phaedon cochleariae; 4 ppm", "result": 80, "unit": "%"}, {"measurement": "Emax at 1 ppm", "setting": "Pyrenophora teres", "result": 11, "unit": "%"}]}, {"smiles": "CC(c1ccc(C(F)(F)F)nc1)S(C)(=O)=NC#N", "note": "(centres unmarked) [sulfoxaflor]", "values": [{"measurement": "Emax at 0.3 ppm", "setting": "Rhizoctonia solani", "result": 0, "unit": "%"}, {"measurement": "Kill in % after 1 d", "setting": "Phaedon cochleariae; 100 ppm", "result": 25, "unit": "%"}]}, {"smiles": "Cc1nn(C)c(F)c1C(=O)Nc1ccccc1C(C)CC(C)C", "note": "(centres unmarked) [penflufen, N-[2-(1,3-dimethylbutyl)phenyl]-5-fluoro-1,3-dimethyl-1H-pyrazole-4-carboxamide]", "values": [{"measurement": "Emax at 0.3 ppm", "setting": "Rhizoctonia solani", "result": 20, "unit": "%"}, {"measurement": "Kill in % after 3 d", "setting": "Phaedon cochleariae; 200 ppm", "result": 0, "unit": "%"}, {"measurement": "Kill in % after 1 d", "setting": "Phaedon cochleariae; 500 ppm", "result": 0, "unit": "%"}, {"measurement": "Emax at 1 ppm", "setting": "Pyrenophora teres", "result": 26, "unit": "%"}]}]}
